Source: patent US7666876B2, “Buprenorphine formulations for intranasal delivery” (Vernalis (R&D) Limited, priority 2002, dated 2010)

Assay: Effect of dextrose and mannitol concentration on buprenorphine solubility in pectin solution (hplc)
Details: aqueous solution containing 20 mg/ml pectin, across the measured pH range
Procedure: Solutions containing pectin (Slendid 100) (20 mg/ml) were prepared at pH 3, 4, 5 and 6 (pH adjustments were made with 0.1M HCl or 0.1M meglumine). […] An excess of buprenorphine hydrochloride was then added and the mixture stirred overnight at 18° C. Saturated buprenorphine hydrochloride solutions were produced by passing each mixture through a 0.2 μm polycarbonate membrane filter. The concentration of buprenorphine hydrochloride in the filtrate was determined by hplc.

CO[C@]12CCC3(C[C@@H]1[C@@](C)(O)C(C)(C)C)[C@H]1Cc4ccc(O)c5c4[C@@]3(CCN1CC1CC1)C2O5 (stereo partly shown) [Buprenorphine]
Effect of dextrose or mannitol concentration on buprenorphine solubility: not affected significantly
